Assay results reported in the NIST ThermoML archive (doi:10.1016/j.jct.2016.09.038).
± gives the expanded uncertainty stated by the source.

Experiments:
[1] = Crystal; DTA
[2] = Molar enthalpy of transition or fusion; conditions: Crystal; DSC

**Q.** With `CC(C)(C)[C@H](O)[C@H](Cc1ccc(Cl)cc1)n1cncn1` [2S,3S-Paclobutrazol] as the compound, how does the Normal melting temperature [1] read?
**A.** Its Normal melting temperature is 160.66 ± 1.1 °C.

**Q.** What about the “Molar enthalpy of transition or fusion” value [2] of the same compound?
**A.** Its value is 9.05 ± 0.263 kcal/mol.
